Source: patent US7642251B2, “Compounds for the treatment of hepatitis C” (Bristol-Myers Squibb Company, priority 2007, dated 2010)

Assays:
HCV NS5B = biological target: T1, HCV NS5B (Hepatitis C virus genotype 1b, UniProt Q9WMX2); experiment: Modified HCV NS5B RdRp enzyme assay (preincubation protocol); assay type: biochemical; settings: preincubation protocol; read-out: IC50
T1 construct: The cDNA encoding the NS5B protein of HCV, genotype 1b; made in house; host or cells: E. coli BL21(DE3)
Protocol: HCV NS5B RdRp cloning, expression, and purification. The cDNA encoding the NS5B protein of HCV, genotype 1b, was cloned into the pET21a expression vector. The protein was expressed with an 18 amino acid C-terminal truncation to enhance the solubility. The E. coli competent cell line BL21(DE3) was used for expression of the protein. Cultures were grown at 37° C. for ˜4 hours until the cultures reached an optical density of 2.0 at 600 nm. The cultures were cooled to 20° C. and induced with 1 mM IPTG. Fresh ampicillin was added to a final concentration of 50 μg/ml and the cells were grown overnight at 20° C.
Cell pellets (3 L) were lysed for purification to yield 15-24 mgs of purified NS5B. The lysis buffer consisted of 20 mM Tris-HCl, pH 7.4, 500 mM NaCl, 0.5% triton X-100, 1 mM DTT, 1 mM EDTA, 20% glycerol, 0.5 mg/ml lysozyme, 10 mM MgCl2, 15 ug/ml deoxyribonuclease I, and Complete™ protease inhibitor tablets (Roche). After addition of the lysis buffer, frozen cell pellets were resuspended using a tissue homogenizer. To reduce the viscosity of the sample, aliquots of the lysate were sonicated on ice using a microtip attached to a Branson sonicator. The sonicated lysate was centrifuged at 100,000×g for 1 hr at 4° C. and filtered through a 0.2 μm filter unit (Corning).
The protein was purified using three sequential chromatography steps: Heparin sepharose CL-6B, polyU sepharose 4B, and Hitrap SP sepharose (Pharmacia). The chromatography buffers were identical to the lysis buffer but contained no lysozyme, deoxyribonuclease I, MgCl2 or protease inhibitor and the NaCl concentration of the buffer was adjusted according to the requirements for charging the protein onto the column. Each column was eluted with a NaCl gradient which varied in length from 5-50 column volumes depending on the column type. After the final chromatography step, the resulting purity of the enzyme is >90% based on SDS-PAGE analysis. The enzyme was aliquoted and stored at −80° C.
Standard HCV NS5B RdRp enzyme assay. HCV RdRp genotype 1b assays were run in a final volume of 60 μl in 96 well plates (Costar 3912). The assay buffer is composed of 20 mM Hepes, pH 7.5, 2.5 mM KCl, 2.5 mM MgCl2, 1 mM DTT, 1.6 U RNAse inhibitor (Promega N2515), 0.1 mg/ml BSA (Promega R3961), and 2% glycerol. All compounds were serially diluted (3-fold) in DMSO and diluted further in water such that the final concentration of DMSO in the assay was 2%. HCV RdRp genotype 1b enzyme was used at a final concentration of 28 nM. A polyA template was used at 6 nM, and a biotinylated oligo-dT12 primer was used at 180 nM final concentration. Template was obtained commercially (Amersham 27-4110). Biotinylated primer was prepared by Sigma Genosys. 3H-UTP was used at 0.6 μCi (0.29 μM total UTP). Reactions were initiated by the addition of enzyme, incubated at 30° C. for 60 min, and stopped by adding 25 μl of 50 mM EDTA containing SPA beads (4 μg/μl, Amersham RPNQ 0007). Plates were read on a Packard Top Count NXT after >1 hr incubation at room temperature.
Modified HCV NS5B RdRp enzyme assay. A modified enzyme assay was performed essentially as described for the standard enzyme assay except for the following: The biotinylated oligo dT12 primer was precaptured on streptavidin-coated SPA beads by mixing primer and beads in assay buffer and incubating at room temperature for one hour. Unbound primer was removed after centrifugation. The primer-bound beads were resuspended in 20 mM Hepes buffer, pH 7.5 and used in the assay at final concentrations of 20 nM primer and 0.67 μg/μl beads. Order of addition in the assay: enzyme (14 nM) was added to diluted compound followed by the addition of a mixture of template (0.2 nM), 3H-UTP (0.6 μCi, 0.29 μM), and primer-bound beads, to initiate the reaction; concentrations given are final. Reactions were allowed to proceed for 4 hours at 30° C.
IC50 values for compounds were determined using seven different [I]. […]

HCV replicon cells = experiment: HCV replicon FRET assay; assay type: cell-based; settings: Hepatitis C virus; FRET assay; read-out: EC50
Text: FRET Assay Preparation. To perform the HCV FRET screening assay, 96-well cell culture plates were used. The FRET peptide (Anaspec, Inc.) (Taliani et al., Anal. Biochem. 1996, 240, 60-67) contains a fluorescence donor, EDANS, near one end of the peptide and an acceptor, DABCYL, near the other end. The fluorescence of the peptide is quenched by […] resonance energy transfer (RET) between the donor and the acceptor, but as the NS3 protease cleaves the peptide the products are released from RET quenching and the fluorescence of the donor becomes apparent. The assay reagent was made as follows: 5× cell Luciferase cell culture lysis reagent from Promega (#E153A) diluted to 1× with dH2O, NaCl added to 150 mM final, the FRET peptide diluted to 20 μM final from a 2 mM stock.
To prepare plates, HCV replicon cells, with or without a Renilla luciferase reporter gene, were trypsinized and placed into each well of a 96-well plate with titrated test compounds added in columns 3 through 12; columns 1 and 2 contained a control compound (HCV protease inhibitor), and the bottom row contained cells without compound. The plates were then placed in a CO2 incubator at 37° C.
Assays. Subsequent to addition of the test compounds described above (FRET Assay Preparation), at various times the plate was removed and Alamar blue solution (Trek Diagnostics, #00-100) was added per well as a measure of cellular toxicity. After reading in a Cytoflour 4000 instrument (PE Biosystems), plates were rinsed with PBS and then used for FRET assay by the addition of 30 ul of the FRET peptide assay reagent described above (FRET Assay Preparation) per well. The plate was then placed into the Cytoflour 4000 instrument which had been set to 340 excite/490 emission, automatic mode for 20 cycles and the plate read in a kinetic mode. Typically, the signal to noise using an endpoint analysis after the reads was at least three-fold. Alternatively, after Alamar blue reading, plates were rinsed with PBS, 50 ul of DMEM (high glucose) without phenol red was added and plates were then used for luciferase assay using the Promega Dual-Glo Luciferase Assay System.
Compound analysis was determined by quantification of the relative HCV replicon inhibition and the relative cytotoxicity values. To calculate cytoxicity values, the average Alamar Blue fluorescence signals from the control wells were set as 100% non-toxic. The individual signals in each of the compound test wells were then divided by the average control signal and multiplied by 100% to determine […]. To calculate the HCV replicon inhibition values, an average background value was obtained from the two wells containing the highest amount of HCV protease inhibitor at the end of the assay period. These numbers were similar to those obtained from naïve Huh-7 cells.
The background numbers were then subtracted from the average signal obtained from the control wells and this number was used as 100% activity. The individual signals in each of the compound test wells were then divided by the averaged control values after background subtraction and multiplied by 100% to determine percent activity. EC50 values for a protease inhibitor titration were calculated as the concentration which caused a 50% reduction in FRET or luciferase activity. The two numbers generated for the compound plate, percent cytoxicity and percent activity were used to determine compounds of interest for further analysis.

T1 sequence (Q9WMX2 2420-2992): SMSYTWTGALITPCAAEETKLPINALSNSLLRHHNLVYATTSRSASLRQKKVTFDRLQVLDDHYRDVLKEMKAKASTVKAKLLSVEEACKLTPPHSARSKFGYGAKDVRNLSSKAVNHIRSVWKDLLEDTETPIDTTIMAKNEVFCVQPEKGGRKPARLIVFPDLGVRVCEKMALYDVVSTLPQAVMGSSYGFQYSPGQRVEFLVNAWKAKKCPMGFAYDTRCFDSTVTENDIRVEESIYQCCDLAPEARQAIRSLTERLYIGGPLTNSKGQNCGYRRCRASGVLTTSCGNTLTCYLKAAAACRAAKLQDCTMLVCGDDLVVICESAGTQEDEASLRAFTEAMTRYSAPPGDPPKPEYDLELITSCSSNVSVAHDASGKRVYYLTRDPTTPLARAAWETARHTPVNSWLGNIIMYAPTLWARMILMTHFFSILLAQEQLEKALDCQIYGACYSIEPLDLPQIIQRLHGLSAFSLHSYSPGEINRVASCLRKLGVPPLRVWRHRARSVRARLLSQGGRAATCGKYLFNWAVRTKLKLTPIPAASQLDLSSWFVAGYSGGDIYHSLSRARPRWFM

| SMILES | IC50 (HCV NS5B) [nM] | EC50 (HCV replicon cells) [nM] |
| --- | --- | --- |
| COc1ccc2c(c1)C=C(c1ncccc1C(=O)N1CCOCC1)Cn1c-2c(C2CCCCC2)c2ccc(C(=O)O)cc21 | 4.58 to 500 | 4.58 to 500 |
| COc1ccc2c(c1)C=C(c1cccc(N3CCOCC3)n1)Cn1c-2c(C2CCCCC2)c2ccc(C(=O)O)cc21 | > 500 | > 500 |
| COc1ccc2c(c1)C=C(c1nccc(N(C)C)n1)Cn1c-2c(C2CCCCC2)c2ccc(C(=O)O)cc21 | > 500 | > 500 |
| COc1ccc2c(c1)C=C(c1ccc(N3CCOCC3)nn1)Cn1c-2c(C2CCCCC2)c2ccc(C(=O)NS(=O)(=O)N(C)C)cc21 | 4.58 to 500 | > 500 |
| COc1ccc2c(c1)C=C(c1nccc(N(C)C)n1)Cn1c-2c(C2CCCCC2)c2ccc(C(=O)NS(=O)(=O)N(C)C)cc21 | 4.58 to 500 | > 500 |
| COc1ccc2c(c1)C=C(c1ncccc1N(C)C)Cn1c-2c(C2CCCCC2)c2ccc(C(=O)NS(=O)(=O)N(C)C)cc21 | 4.58 to 500 | 4.58 to 500 |
| COc1ccc2c(c1)C=C(c1nccc(C(=O)N3CCOCC3)n1)Cn1c-2c(C2CCCCC2)c2ccc(C(=O)NS(=O)(=O)N(C)C)cc21 | 4.58 to 500 | 4.58 to 500 |
| COc1ccc2c(c1)C=C(c1ncccc1S(=O)(=O)N1CCOCC1)Cn1c-2c(C2CCCCC2)c2ccc(C(=O)NS(=O)(=O)N(C)C)cc21 | 4.58 to 500 | 4.58 to 500 |
| COc1ccc2c(c1)C=C(c1ncccc1N1CC(C)(C)C1=O)Cn1c-2c(C2CCCCC2)c2ccc(C(=O)NS(=O)(=O)N(C)C)cc21 | 4.58 to 500 | 4.58 to 500 |
| COc1ccc2c(c1)C=C(c1ncccc1C(=O)N1CCN(C)CC1)Cn1c-2c(C2CCCCC2)c2ccc(C(=O)NS(=O)(=O)N(C)C)cc21 | 4.58 to 500 | 4.58 to 500 |
| COc1ccc2c(c1)C=C(c1ncccc1C(=O)N(C)C)Cn1c-2c(C2CCCCC2)c2ccc(C(=O)NS(=O)(=O)N(C)C)cc21 | 4.58 to 500 | 4.58 to 500 |
| COc1ccc2c(c1)C=C(c1ncccc1C(=O)N1CCCC1)Cn1c-2c(C2CCCCC2)c2ccc(C(=O)NS(=O)(=O)N(C)C)cc21 | 4.58 to 500 | 4.58 to 500 |
| COc1ccc2c(c1)C=C(c1ncccc1C(=O)N1CCC(O)CC1)Cn1c-2c(C2CCCCC2)c2ccc(C(=O)NS(=O)(=O)N(C)C)cc21 | 4.58 to 500 | 4.58 to 500 |
| COc1ccc2c(c1)C=C(c1ncccc1C(=O)N1CCCCC1)Cn1c-2c(C2CCCCC2)c2ccc(C(=O)NS(=O)(=O)N(C)C)cc21 | 4.58 to 500 | 4.58 to 500 |
| COc1ccc2c(c1)C=C(c1ccccc1)Cn1c-2c(C2CCCCC2)c2ccc(C(=O)NS(=O)(=O)N(C)C)cc21 | 4.58 to 500 | > 500 |
| COc1ccc2c(c1)CC(c1ncccc1C(=O)N1CCOCC1)Cn1c-2c(C2CCCCC2)c2ccc(C(=O)NS(=O)(=O)N(C)C)cc21 (stereo not drawn) | 4.58 to 500 | 4.58 to 500 |
| COc1ccc2c(c1)CC(c1cccc(N3CCOCC3)n1)Cn1c-2c(C2CCCCC2)c2ccc(C(=O)NS(=O)(=O)N(C)C)cc21 (stereo not drawn) | 4.58 to 500 | 4.58 to 500 |
| COc1ccc2c(c1)CC(c1cc(C(=O)N3CCOCC3)ccn1)Cn1c-2c(C2CCCCC2)c2ccc(C(=O)NS(=O)(=O)N(C)C)cc21 (stereo not drawn) | 4.58 to 500 | 4.58 to 500 |
| COc1ccc2c(c1)C1CC1(c1ncccc1C(=O)N1CCN(C)CC1)Cn1c-2c(C2CCCCC2)c2ccc(C(=O)NS(=O)(=O)N(C)C)cc21 (stereo not drawn) | 4.58 to 500 | 4.58 to 500 |
| COc1ccc2c(c1)C=C(c1ccccc1OC(F)F)Cn1c-2c(C2CCCCC2)c2ccc(C(=O)NS(=O)(=O)C(C)C)cc21 | 4.58 to 500 | > 500 |
| COc1ccc2c(c1)C=C(c1ccccc1)Cn1c-2c(C2CCCCC2)c2ccc(C(=O)NS(=O)(=O)C(C)C)cc21 | 4.58 to 500 | > 500 |
| COc1ccc2c(c1)C=C(c1ccccc1-c1noc(C)n1)Cn1c-2c(C2CCCCC2)c2ccc(C(=O)NS(=O)(=O)C(C)C)cc21 | 4.58 to 500 | 4.58 to 500 |
| COc1ccc2c(c1)C=C(c1ccccc1S(=O)(=O)N(C)C)Cn1c-2c(C2CCCCC2)c2ccc(C(=O)NS(=O)(=O)C(C)C)cc21 | 4.58 to 500 | > 500 |
| COc1ccc2c(c1)C=C(c1cc(C(F)(F)F)ccc1N1CCOCC1)Cn1c-2c(C2CCCCC2)c2ccc(C(=O)NS(=O)(=O)C(C)C)cc21 | > 500 | > 500 |
| COc1ccc2c(c1)C=C(c1ccccc1NC(=O)C1CC1)Cn1c-2c(C2CCCCC2)c2ccc(C(=O)NS(=O)(=O)C(C)C)cc21 | 4.58 to 500 | 4.58 to 500 |
| COc1ccc2c(c1)C=C(c1ccccc1OCCN1CCOCC1)Cn1c-2c(C2CCCCC2)c2ccc(C(=O)NS(=O)(=O)C(C)C)cc21 | 4.58 to 500 | 4.58 to 500 |
| COc1ccc2c(c1)C=C(c1ccccc1OCCN(C)C)Cn1c-2c(C2CCCCC2)c2ccc(C(=O)NS(=O)(=O)C(C)C)cc21 | 4.58 to 500 | 4.58 to 500 |
| COc1ccc2c(c1)C=C(c1ccccc1CS(C)(=O)=O)Cn1c-2c(C2CCCCC2)c2ccc(C(=O)NS(=O)(=O)C(C)C)cc21 | 4.58 to 500 | 4.58 to 500 |
| COc1ccc2c(c1)C=C(c1cccc(OCCN(C)C)c1)Cn1c-2c(C2CCCCC2)c2ccc(C(=O)O)cc21 | 4.58 to 500 | > 500 |
| COc1ccc2c(c1)C=C(c1cccc(OCCN3CCOCC3)c1)Cn1c-2c(C2CCCCC2)c2ccc(C(=O)O)cc21 | 4.58 to 500 | > 500 |
